From patent US20230118517A1, “METHODS OF TREATING MULTIPLE MYELOMA” (Seagen Inc., priority 2020, published 2023)

Columns and labels:
NCI-H929 cells = experiment: BCMA expression by flow cytometry after GSI incubation, NCI-H929; format: cell-based; conditions: NCI-H929, 1 μM DAPT for 24 hrs vs untreated
FcγRIII [1] = experiment: FcγRIII signaling ADCC reporter bioassay, NCI-H929 target cells; format: cell-based; conditions: NCI-H929 bound with antibody dose titrations, +/- DAPT, CD16A-Jurkat effector cells 6:1
Description: (§1) NCI-H929 or Molp-8 MM target cells were incubated with and without 1 μM DAPT for 24 hrs. […] FcγRIII signaling was determined using a surrogate assay as manufacturer describes (Promega ADCC reporter bioassay cat #G9302). Cells were bound with antibody dose titrations+/−GSI for 30 minutes at 37° C. CD16A-Jurkat effector cells were then added with a 6:1 effector-to-target cell ratio. After an overnight incubation, the assay was developed with Bio-Glo and relative luminescence units (RLU) were measured on an Envision plate reader. […] Enhanced signaling is the first step in the primary mechanism of action of SEA-BCMA. This signaling can translate to increased anti-MM cell lysis through ADCC.

FcγRIII [2] = experiment: FcγRIII signaling ADCC reporter bioassay, Molp-8 target cells; format: cell-based; conditions: Molp-8 bound with antibody dose titrations, +/- DAPT, CD16A-Jurkat effector cells 6:1
Description: as §1

Molp-8 cells = experiment: BCMA expression by flow cytometry after GSI incubation, Molp-8; format: cell-based
U266 = experiment: BCMA expression by flow cytometry after Nirogacestat, U266; format: cell-based; conditions: U266, after incubation with Nirogacestat (FIG. 9A)
NF-κB p65 = NF-κB p65 activity ELISA on nuclear extract; format: cell-based; conditions: NCI-H929, serum-starved, 0.2 μM Nirogacestat 16 hrs, +/- 1 μg/ml APRIL
Description: The secondary mechanism of action of SEA-BCMA is to block BCMA proliferative cell signaling. Increased BCMA from GSI treatment is expected to induce increased BCMA signaling. Therefore, the block of this enhanced signaling by SEA-BCMA was tested. BCMA-expressing NCI-H929 cells were serum-starved with and without 0.2 μM Nirogacestat (purchased from SelleckChem) for 16 hrs. Cells were then bound with and without 20 μg/mL SEA-BCMA and incubated with and without 1 μg/ml recombinant human APRIL (R&D Systems) for 20 minutes at 37° C. in the presence or absence of 0.2 μM Nirogacestat. 1 μg of nuclear extract was assayed in duplicate for NF-κB p65 activity by ELISA (TransAM NFκB Chemi p65, Active Motif).

[3] = test system: MM1R myeloma target cells; experiment: PBMC-mediated MM1R target cell killing, second experiment (PBMC pretreated 5 days, 0.5 μM pomalidomide); format: cell-based; conditions: PBMC:MM1R 10:1, overnight, with or without 0.5 μM pomalidomide
Description: (§2) Experiments were performed to test whether SEA-BCMA combines effectively with pomalidomide in vitro by combining PBMC effector cells with MM1R target cells treated with both pomalidomide and SEA-BCMA or antibody controls. The first experiment (FIG. 12A) benchmarks against MM standard of care elotuzumab and nonfucosylated parent BCMA antibody. The second experiment (FIG. 12B) benchmarks against MM standard of care daratumumab. MM1R target cells express 15,000 copies of BCMA, 12,000 copies of CS1 (elotuzumab target), and 36,000 copies of CD38 (daratumumab target).
In the second experiment (FIG. 12B), normal donor PBMCs of the FcγRIII V/F genotype were treated with or without 0.5 μM pomalidomide (APEx Bio, cat #A4211) for 5 days. The resulting PBMCs were then washed and mixed with CFSE (Invitrogen cat #V12883) labeled MM1R myeloma target cells at an effector-to-target cell ratio of 10:1. The mixture was then treated with a dose range of the following antibodies: SEA-BCMA, daratumumab, or non-binding hIgG1k antibody control (Sigma cat #15154) with or without 0.5 μM pomalidomide (APEx Bio, cat #A4211) and incubated overnight. Percentage live MM1R cells were then determined using the viability dye 7-AAD (BD Biosciences, cat #559925) by flow cytometry.

[4] = test system: MM1R myeloma target cells; experiment: PBMC-mediated MM1R target cell killing, first experiment (48 hrs, 3 μM pomalidomide); format: cell-based; conditions: PBMC:MM1R 10:1, 48 hrs, with or without 3 μM pomalidomide
Description: as §2
In the first experiment (FIG. 12A), normal donor PBMCs of the FcγRIII V/F genotype were mixed with CFSE (Invitrogen cat #V12883) labeled MM1R myeloma target cells at an effector-to-target cell ratio of 10:1. The mixture was treated with a dose range of the following antibodies: SEA-BCMA, elotuzumab, WT-BCMA (fucosylated parent Ab), or non-binding hIgG1k antibody control (Sigma cat #15154) with or without 3 μM pomalidomide (APEx Bio, cat #A4211). After 48 hrs, the % live MM1R cells were then determined using the viability dye 7-AAD (BD Biosciences, cat #559925) by flow cytometry.

[5] = biological target: T1, human BCMA (B-cell maturation antigen) (human, UniProt Q02223 1-184); experiment: flow cytometry on MM cells from bone marrow aspirates
T1 construct: Endogenous BCMA on MM1R and NCI-H929 cell lines and on patients' multiple myeloma cells; also called membrane BCMA; cell-surface BCMA
T1 sequence: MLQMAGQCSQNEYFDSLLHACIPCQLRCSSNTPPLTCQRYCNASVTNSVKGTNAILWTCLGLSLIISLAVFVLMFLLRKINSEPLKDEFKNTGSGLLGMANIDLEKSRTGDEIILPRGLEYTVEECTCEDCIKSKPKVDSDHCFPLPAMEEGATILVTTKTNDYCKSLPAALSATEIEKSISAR

[6] = biological target: T1, human BCMA (B-cell maturation antigen); experiment: in vitro cell binding capacity assay, flow cytometry on MM1R cells

For C[C@H](NC(=O)Cc1cc(F)cc(F)c1)C(=O)N[C@H](C(=O)OC(C)(C)C)c1ccccc1 [DAPT], the BCMA expression (NCI-H929 cells) was “increased BCMA expression”, the FcγRIII signaling (FcγRIII [1]) was “increased FcγRIII signaling” and the FcγRIII signaling (FcγRIII [2]) was “increased FcγRIII signaling”. For the same molecule, the BCMA expression (Molp-8 cells; Molp-8, 1 μM DAPT for 24 hrs vs untreated) was “increased BCMA expression”.

CCC[C@H](N[C@H]1CCc2cc(F)cc(F)c2C1)C(=O)Nc1cn(C(C)(C)CNCC(C)(C)C)cn1 [Nirogacestat] was tested, and the BCMA expression (U266) was “increased BCMA expression”, the “NF-κB signaling (p65 activity, RLU)” value (NF-κB p65) was “increased NF-κB signaling” and the BCMA expression (Molp-8 cells; Molp-8, Nirogacestat treated vs untreated (FIG. 9A legend)) was “increased BCMA expression”.

With “Daratumumab: anti-CD38 antibody, MM standard of care [reference compound]” the “MM1R target cell killing (percentage live MM1R cells)” value [3] was “less activity than SEA-BCMA”.

In the case of “Elotuzumab: MM standard of care antibody; target CS1 [reference compound]”, the “MM1R target cell killing (% live MM1R cells)” value [4] is reported as “no impact on cells unless pomalidomide was added”.

B1: APRIL (a proliferation-inducing ligand) (ligand, human, UniProt O75888 105-250, looked up)
chain: AVLTQKQKKQHSVLHLVPINATSKDDSDVTEVMWQPALRRGRGLQAQGYGVRIQDAGVYLLYSQVLFQDVTFTMGQVVSREGQGRQETLFRCIRSMPSHPDRAYNSCYSAGVFHLHQGDILSVIIPRARAKLNLSPHGTFLGFVKL
B1: binds [5].

B2: SEA-BCMA (antibody, human IgG1, kappa, V domains shown)
VH: QVQLVQSGAEVKKPGASVKLSCKASGYTFTDYYIHWVRQAPGQGLEWIGYINPNSGYTNYAQKFQGRATMTADKSINTAYVELSRLRSDDTAVYFCTRYMWERVTGFFDFWGQGTMVTVSS
VL: DIQMTQSPSSVSASVGDRVTITCLASEDISDDLAWYQQKPGKAPKVLVYTTSSLQSGVPSRFSGSGSGTDFTLTISSLQPEDFATYFCQQTYKFPPTFGGGTKVEIKR
notes: also called non-fucosylated monoclonal anti-BCMA antibody
B2: binds [6].
